Measured values: patent US20080293795A1, “COMBINATION THERAPY WITH PARP INHIBITORS” (ABBOTT LABORATORIES, priority 2006, published 2008)
Read-outs that look alike come from different tables or passages of the source.

Columns and labels:
[1] = system: B16F10 murine melanoma; assay: B16F10 murine melanoma, combination with TMZ; assay type: in vivo, C57BL/6 mice; conditions: A-861695 25, 12.5 or 3.1 mg/kg/day p.o. b.i.d. + TMZ 62.5 mg/kg/day p.o. q.d. X5; FIG. 2
Experimental: This study was done on mice with B 16F10 murine melanoma. Mice were divided into six treatment groups with 8-10 mice per group. See figure two for treatment groups. B16F10 cells were injected s.c. into C57BL/6 mice on day 0. Dosing was initiated on day one. A-861695 was administered p.o., b.i.d. on days 1-14. On days 3-7 temozolomide (TMZ) was administered p.o., q.d. (for the groups receiving both TMZ and A-861695, TMZ was given two hours after the A-861695 was administered).

[2] = system: DoHH-2 flank tumor xenograft; conditions: for efficacy at reducing the Mean Tumor Volume, alone: single agent
Experimental: Animals were size matched on day 15 to an approximate tumor volume of 503 mm^3.
Group mouse weights were recorded three times a week to monitor for weight loss due to toxicity or excessive tumor burden.

[3] = system: HSB T-cell ALL; JM1 pre-B ALL; P115 primary AML cells; assay: TMZ and ABT-888 combinations in leukemia cells (FIGS. 9-11); conditions: differing amounts of TMZ and ABT-888
[4] = system: MDA-231-LN-luc cells in the brain striatum; conditions: for survival to 300% tumor change endpoint: Kaplan-Meier, Logrank, FIG. 23
[5] = system: MX-1 flank xenograft; conditions: TMZ at 50 and 12.5 mg/kg/day
From the text: All mice were ear tagged. […] At various intervals following tumor cell inoculation, the individual tumor dimensions were serially measured using calibrated microcalipers and the tumor volumes calculated according to the formula V=L×W^2/2 (V:volume, L:length, W:width). Mice were humanely euthanized when the tumor volumes reached a predetermined size.

[6] = system: MX-1 breast carcinoma xenograft; assay: MX-1 breast carcinoma xenograft, combination with cisplatin; assay type: in vivo, nude mice; conditions: FIG. 5
Experimental: In this study the efficacy of A-861695 in combination with cisplatin was evaluated in the MX-1 breast carcinoma xenograft model in nude mice. Tumors were size-matched to 100 mm^3 on day 16 and PARP inhibitor therapy (p.o., b.i.d. x8) was initiated the same day. A single dose of cisplatin at 6.0 mg/kg/day was administered i.p. day 18. Data, shown in FIG. 5, are mean ±S.E.M. of 9 mice per treatment group.

[7] = system: MX-1 breast carcinoma xenograft; assay: MX-1 breast carcinoma xenograft, combination with carboplatin; assay type: in vivo, scid mice; conditions: A-861695 25 mg/kg/day s.c. OMPs 14 days + carboplatin 10 and 15 mg/kg/day
From the text: This cell line was derived from a person with a poorly differentiated mammary carcinoma.
Data presented in FIG. 4 are mean ±S.E.M. of 8-10 mice per treatment group.

[8] = system: PC3M-Luc human prostate carcinoma; assay: Orthotopic PC3M-Luc human prostate carcinoma model (BLI); assay type: in vivo, male SCID-C.B17 mice; conditions: vs vehicles, p<0.01
Experimental: Bioluminescent PC-3M-luciferase-C6 osteolytic human prostate cancer cells, constitutively expressing luciferase (Caliper Life Sciences, Hopkinton, Mass.) were orthotopically injected into the prostates of 10-week-old male SCID-C.B17 mice (C.B-17/IcrCrl-scid-BR, Charles River Labs). Mice were housed in a facility with constant humidity, temperature and a 12-h light-dark cycle. Mice were anesthetized with intramuscular injections of ketamine (40 mg/kg) and rompum (5 mg/kg) before surgery. The surgical region was shaved and sterilized with iodine and alcohol swabs. A lower midline incision was made to access the prostate. The left lobe of the dorsal prostate was injected with 1×10^6 PC3M-Luc cells (975 photon/second/cell) in 30 μl (1:1 matrigel, Collaborative Biomedical Products, Bedford, Mass.). The peritoneal cavity was closed with 4-0 suture and skin incision was closed with clip.
In vivo bioluminescent image (BLI) was performed with an IVIS® Imaging System (Caliper Life Sciences, Hopkinton, Mass.). […] Images and measurements of bioluminescent signals were acquired and analyzed using Living Image® software (Caliper Life Sciences, Hopkinton, Mass.). Uniform region of interests (ROIs) were used across all groups and time points to achieve quantification of bioluminescent signal. […] The mice were then monitored with this system at weekly intervals. […]

| SMILES | potentiation of TMZ efficacy [1] | Observations (toxicity assessment) ([2]; Scid female mice, same dosing) | efficacy at reducing the Mean Tumor Volume, alone [2] | effect on toxicity of TMZ [3] | survival to 300% tumor change endpoint [4] | effect on toxicity of TMZ (% mean body weight loss) [5] | blood brain barrier crossing (rat, in vivo) | effect of co-administration of TMZ on plasma PK profile (tumor-bearing rats) | potentiation of cisplatin activity [6] | potentiation of carboplatin (tumor volumes) [7] | Observations (toxicity assessment) ([2]; female, Scid, mouse, in vivo) | Weight loss (Observations) ([4]; after last dose of 2nd cycle) [% after last] | Mortality ([4]; dead/total mice) | efficacy after first treatment schedule (day 30) [8] |
| --- | --- | --- | --- | --- | --- | --- | --- | --- | --- | --- | --- | --- | --- | --- |
| C[C@]1(c2nc3c(C(N)=O)cccc3[nH]2)CCCN1 [ABT-888, 2-[(2R)-2-methylpyrrolidin-2-yl]-1H-benzimidazole-4-carboxamide] | significantly potentates the TMZ efficacy in a dose dependent manner | None | no efficacy | enhancement of toxicity of TMZ | profoundly improved survival compared to TMZ treatment alone | did not exacerbate the toxicity of TMZ | crosses the blood brain barrier | did not alter the plasma PK profile | pronounced potentiation of cisplatin activity | pronounced potentiation of carboplatin | – | – | – | – |
| Cn1nnc2c(C(N)=O)ncn2c1=O [TMZ, temozolomide] | – | – | no efficacy | – | significantly increased survival | – | – | – | – | – | Slight | > 10 | 0/11 | significantly better than their vehicles |
